Measurements: patent publication US9113629B2, “4-amino-6-(4-substituted-phenyl)-picolinates and 6-amino-2-(4-substituted-phenyl)-pyrimidine-4-carboxylates and their use as herbicides” (DOW AGROSCIENCES LLC, priority 2013, dated 2015)

The compounds below were run on Key Grass and Sedge Weeds as well as Grass Crops (assay: Post-emergent Test II herbicidal activity (Table 6)). Conditions: Triticum aestivum, post-emergence, 336 h, TRZSS (wheat), application rate 70 g ai/ha, read-out: Visual Growth Reduction (%) 14 Days After Application, TRZSS.
Format: in vivo
In short: (§1)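 Plants grown in Metro-Mix 360 (pH 6.0–6.8) in a greenhouse (~15 h photoperiod, 23–29 °C day) to first or second true leaf stage, then sprayed with compound in acetone/DMSO/aqueous crop-oil-surfactant carrier at 187 L/ha by track sprayer. Injury visually scored 0–100% versus untreated plants after 14 d.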

Compound | pest or weed control at 70 g/ha [%]
Nc1cc(-c2ccc(I)c(F)c2)nc(C(=O)O)c1Cl [Compound 77, 4-amino-3-chloro-6-(3-fluoro-4-iodophenyl)picolinic acid] | 45 to 59

Same assay, conditions: Triticum aestivum, post-emergence, 336 h, TRZSS (wheat), application rate 140 g ai/ha, read-out: Visual Growth Reduction (%) 14 Days After Application, TRZSS

Compound | pest or weed control at 140 g/ha [%]
Nc1cc(-c2ccc(I)c(F)c2)nc(C(=O)O)c1Cl [Compound 77, 4-amino-3-chloro-6-(3-fluoro-4-iodophenyl)picolinic acid] | 45 to 59

Same assay, conditions: post-emergence, 336 h, CYPES: yellow nutsedge (Cyperus esculentus), application rate 70 g ai/ha, read-out: Visual Growth Reduction (%) 14 Days After Application, CYPES

Compound | pest or weed control at 70 g/ha [%]
Nc1cc(-c2ccc(I)c(F)c2)nc(C(=O)O)c1Cl [Compound 77, 4-amino-3-chloro-6-(3-fluoro-4-iodophenyl)picolinic acid] | 0 to 29

Same assay, conditions: post-emergence, 336 h, CYPES: yellow nutsedge (Cyperus esculentus), application rate 140 g ai/ha, read-out: Visual Growth Reduction (%) 14 Days After Application, CYPES

Compound | pest or weed control at 140 g/ha [%]
Nc1cc(-c2ccc(I)c(F)c2)nc(C(=O)O)c1Cl [Compound 77, 4-amino-3-chloro-6-(3-fluoro-4-iodophenyl)picolinic acid] | 45 to 59

Same assay, conditions: post-emergence, 336 h, DIGSA: crabgrass (Digitaria sanguinalis), application rate 70 g ai/ha, read-out: Visual Growth Reduction (%) 14 Days After Application, DIGSA

Compound | pest or weed control at 70 g/ha [%]
Nc1cc(-c2ccc(I)c(F)c2)nc(C(=O)O)c1Cl [Compound 77, 4-amino-3-chloro-6-(3-fluoro-4-iodophenyl)picolinic acid] | 75 to 84

Same assay, conditions: post-emergence, 336 h, DIGSA: crabgrass (Digitaria sanguinalis), application rate 140 g ai/ha, read-out: Visual Growth Reduction (%) 14 Days After Application, DIGSA

Compound | pest or weed control at 140 g/ha [%]
Nc1cc(-c2ccc(I)c(F)c2)nc(C(=O)O)c1Cl [Compound 77, 4-amino-3-chloro-6-(3-fluoro-4-iodophenyl)picolinic acid] | 85 to 94

Same assay, conditions: post-emergence, 336 h, ECHCG: barnyardgrass (Echinochloa crus-galli), application rate 70 g ai/ha, read-out: Visual Growth Reduction (%) 14 Days After Application, ECHCG

Compound | pest or weed control at 70 g/ha [%]
Nc1cc(-c2ccc(I)c(F)c2)nc(C(=O)O)c1Cl [Compound 77, 4-amino-3-chloro-6-(3-fluoro-4-iodophenyl)picolinic acid] | 60 to 74

Same assay, conditions: post-emergence, 336 h, ECHCG: barnyardgrass (Echinochloa crus-galli), application rate 140 g ai/ha, read-out: Visual Growth Reduction (%) 14 Days After Application, ECHCG

Compound | pest or weed control at 140 g/ha [%]
Nc1cc(-c2ccc(I)c(F)c2)nc(C(=O)O)c1Cl [Compound 77, 4-amino-3-chloro-6-(3-fluoro-4-iodophenyl)picolinic acid] | 60 to 74

Same assay, conditions: post-emergence, 336 h, ORYSA: rice (Oryza sativa), application rate 70 g ai/ha, read-out: Visual Growth Reduction (%) 14 Days After Application, ORYSA

Compound | pest or weed control at 70 g/ha [%]
Nc1cc(-c2ccc(I)c(F)c2)nc(C(=O)O)c1Cl [Compound 77, 4-amino-3-chloro-6-(3-fluoro-4-iodophenyl)picolinic acid] | 0 to 29

Same assay, conditions: post-emergence, 336 h, ORYSA: rice (Oryza sativa), application rate 140 g ai/ha, read-out: Visual Growth Reduction (%) 14 Days After Application, ORYSA

Compound | pest or weed control at 140 g/ha [%]
Nc1cc(-c2ccc(I)c(F)c2)nc(C(=O)O)c1Cl [Compound 77, 4-amino-3-chloro-6-(3-fluoro-4-iodophenyl)picolinic acid] | 0 to 29

Same assay, conditions: post-emergence, 336 h, SETFA: giant foxtail (Setaria faberi), application rate 70 g ai/ha, read-out: Visual Growth Reduction (%) 14 Days After Application, SETFA

Compound | pest or weed control at 70 g/ha [%]
Nc1cc(-c2ccc(I)c(F)c2)nc(C(=O)O)c1Cl [Compound 77, 4-amino-3-chloro-6-(3-fluoro-4-iodophenyl)picolinic acid] | 0 to 29

Same assay, conditions: post-emergence, 336 h, SETFA: giant foxtail (Setaria faberi), application rate 140 g ai/ha, read-out: Visual Growth Reduction (%) 14 Days After Application, SETFA

Compound | pest or weed control at 140 g/ha [%]
Nc1cc(-c2ccc(I)c(F)c2)nc(C(=O)O)c1Cl [Compound 77, 4-amino-3-chloro-6-(3-fluoro-4-iodophenyl)picolinic acid] | 0 to 29

Same assay, conditions: post-emergence, 336 h, SORVU: grain sorghum (Sorghum vulgare), application rate 70 g ai/ha, read-out: Visual Growth Reduction (%) 14 Days After Application, SORVU

Compound | pest or weed control at 70 g/ha [%]
Nc1cc(-c2ccc(I)c(F)c2)nc(C(=O)O)c1Cl [Compound 77, 4-amino-3-chloro-6-(3-fluoro-4-iodophenyl)picolinic acid] | 45 to 59

Same assay, conditions: post-emergence, 336 h, SORVU: grain sorghum (Sorghum vulgare), application rate 140 g ai/ha, read-out: Visual Growth Reduction (%) 14 Days After Application, SORVU

Compound | pest or weed control at 140 g/ha [%]
Nc1cc(-c2ccc(I)c(F)c2)nc(C(=O)O)c1Cl [Compound 77, 4-amino-3-chloro-6-(3-fluoro-4-iodophenyl)picolinic acid] | 45 to 59

Same assay, conditions: post-emergence, 336 h, ZEAMX: maize, corn (Zea mays), application rate 70 g ai/ha, read-out: Visual Growth Reduction (%) 14 Days After Application, ZEAMX

Compound | pest or weed control at 70 g/ha [%]
Nc1cc(-c2ccc(I)c(F)c2)nc(C(=O)O)c1Cl [Compound 77, 4-amino-3-chloro-6-(3-fluoro-4-iodophenyl)picolinic acid] | 0 to 29

Same assay, conditions: post-emergence, 336 h, ZEAMX: maize, corn (Zea mays), application rate 140 g ai/ha, read-out: Visual Growth Reduction (%) 14 Days After Application, ZEAMX

Compound | pest or weed control at 140 g/ha [%]
Nc1cc(-c2ccc(I)c(F)c2)nc(C(=O)O)c1Cl [Compound 77, 4-amino-3-chloro-6-(3-fluoro-4-iodophenyl)picolinic acid] | 0 to 29

These compounds were tested on Key Broadleaf Weed and Crop Species (assay: Post-emergent Test II herbicidal activity (Table 5)). Conditions: post-emergence, 336 h; ABUTH: velvetleaf (Abutilon theophrasti); 70 g ai/ha; post-emergent; 14 days after application; read-out: Visual Growth Reduction (%) 14 Days After Application ABUTH.
Format: in vivo
In short: as §1

Compound | pest or weed control at 70 g/ha [%]
Nc1cc(-c2ccc(I)c(F)c2)nc(C(=O)O)c1Cl [Compound 77, 4-amino-3-chloro-6-(3-fluoro-4-iodophenyl)picolinic acid] | 85 to 94

Same assay, conditions: post-emergence, 336 h; ABUTH: velvetleaf (Abutilon theophrasti); 140 g ai/ha; post-emergent; 14 days after application; read-out: Visual Growth Reduction (%) 14 Days After Application ABUTH

Compound | pest or weed control at 140 g/ha [%]
Nc1cc(-c2ccc(I)c(F)c2)nc(C(=O)O)c1Cl [Compound 77, 4-amino-3-chloro-6-(3-fluoro-4-iodophenyl)picolinic acid] | 95 to 100

Same assay, conditions: post-emergence, 336 h; AMARE: redroot pigweed (Amaranthus retroflexus); 70 g ai/ha; post-emergent; 14 days after application; read-out: Visual Growth Reduction (%) 14 Days After Application AMARE

Compound | pest or weed control at 70 g/ha [%]
Nc1cc(-c2ccc(I)c(F)c2)nc(C(=O)O)c1Cl [Compound 77, 4-amino-3-chloro-6-(3-fluoro-4-iodophenyl)picolinic acid] | 95 to 100

Same assay, conditions: post-emergence, 336 h; AMARE: redroot pigweed (Amaranthus retroflexus); 140 g ai/ha; post-emergent; 14 days after application; read-out: Visual Growth Reduction (%) 14 Days After Application AMARE

Compound | pest or weed control at 140 g/ha [%]
Nc1cc(-c2ccc(I)c(F)c2)nc(C(=O)O)c1Cl [Compound 77, 4-amino-3-chloro-6-(3-fluoro-4-iodophenyl)picolinic acid] | 95 to 100

Same assay, conditions: post-emergence, 336 h; BRSNN: oilseed-rape, canola (Brassica napus); 70 g ai/ha; post-emergent; 14 days after application; read-out: Visual Growth Reduction (%) 14 Days After Application BRSNN

Compound | pest or weed control at 70 g/ha [%]
Nc1cc(-c2ccc(I)c(F)c2)nc(C(=O)O)c1Cl [Compound 77, 4-amino-3-chloro-6-(3-fluoro-4-iodophenyl)picolinic acid] | 75 to 84

Same assay, conditions: post-emergence, 336 h; BRSNN: oilseed-rape, canola (Brassica napus); 140 g ai/ha; post-emergent; 14 days after application; read-out: Visual Growth Reduction (%) 14 Days After Application BRSNN

Compound | pest or weed control at 140 g/ha [%]
Nc1cc(-c2ccc(I)c(F)c2)nc(C(=O)O)c1Cl [Compound 77, 4-amino-3-chloro-6-(3-fluoro-4-iodophenyl)picolinic acid] | 85 to 94

Same assay, conditions: post-emergence, 336 h; CHEAL: lambsquarters (Chenopodium album); 70 g ai/ha; post-emergent; 14 days after application; read-out: Visual Growth Reduction (%) 14 Days After Application CHEAL

Compound | pest or weed control at 70 g/ha [%]
Nc1cc(-c2ccc(I)c(F)c2)nc(C(=O)O)c1Cl [Compound 77, 4-amino-3-chloro-6-(3-fluoro-4-iodophenyl)picolinic acid] | 95 to 100

Same assay, conditions: post-emergence, 336 h; CHEAL: lambsquarters (Chenopodium album); 140 g ai/ha; post-emergent; 14 days after application; read-out: Visual Growth Reduction (%) 14 Days After Application CHEAL

Compound | pest or weed control at 140 g/ha [%]
Nc1cc(-c2ccc(I)c(F)c2)nc(C(=O)O)c1Cl [Compound 77, 4-amino-3-chloro-6-(3-fluoro-4-iodophenyl)picolinic acid] | 95 to 100

Same assay, conditions: post-emergence, 336 h; EPHHL: wild poinsettia (Euphorbia heterophylla); 70 g ai/ha; post-emergent; 14 days after application; read-out: Visual Growth Reduction (%) 14 Days After Application EPHHL

Compound | pest or weed control at 70 g/ha [%]
Nc1cc(-c2ccc(I)c(F)c2)nc(C(=O)O)c1Cl [Compound 77, 4-amino-3-chloro-6-(3-fluoro-4-iodophenyl)picolinic acid] | 95 to 100

Same assay, conditions: post-emergence, 336 h; EPHHL: wild poinsettia (Euphorbia heterophylla); 140 g ai/ha; post-emergent; 14 days after application; read-out: Visual Growth Reduction (%) 14 Days After Application EPHHL

Compound | pest or weed control at 140 g/ha [%]
Nc1cc(-c2ccc(I)c(F)c2)nc(C(=O)O)c1Cl [Compound 77, 4-amino-3-chloro-6-(3-fluoro-4-iodophenyl)picolinic acid] | 95 to 100

Same assay, conditions: post-emergence, 336 h; HELAN: sunflower (Helianthus annuus); 70 g ai/ha; post-emergent; 14 days after application; read-out: Visual Growth Reduction (%) 14 Days After Application HELAN

Compound | pest or weed control at 70 g/ha [%]
Nc1cc(-c2ccc(I)c(F)c2)nc(C(=O)O)c1Cl [Compound 77, 4-amino-3-chloro-6-(3-fluoro-4-iodophenyl)picolinic acid] | 85 to 94

Same assay, conditions: post-emergence, 336 h; HELAN: sunflower (Helianthus annuus); 140 g ai/ha; post-emergent; 14 days after application; read-out: Visual Growth Reduction (%) 14 Days After Application HELAN

Compound | pest or weed control at 140 g/ha [%]
Nc1cc(-c2ccc(I)c(F)c2)nc(C(=O)O)c1Cl [Compound 77, 4-amino-3-chloro-6-(3-fluoro-4-iodophenyl)picolinic acid] | 85 to 94

Same assay, conditions: post-emergence, 336 h; VIOTR: wild pansy (Viola tricolor); 70 g ai/ha; post-emergent; 14 days after application; read-out: Visual Growth Reduction (%) 14 Days After Application VIOTR

Compound | pest or weed control at 70 g/ha [%]
Nc1cc(-c2ccc(I)c(F)c2)nc(C(=O)O)c1Cl [Compound 77, 4-amino-3-chloro-6-(3-fluoro-4-iodophenyl)picolinic acid] | 0 to 29

Same assay, conditions: post-emergence, 336 h; VIOTR: wild pansy (Viola tricolor); 140 g ai/ha; post-emergent; 14 days after application; read-out: Visual Growth Reduction (%) 14 Days After Application VIOTR

Compound | pest or weed control at 140 g/ha [%]
Nc1cc(-c2ccc(I)c(F)c2)nc(C(=O)O)c1Cl [Compound 77, 4-amino-3-chloro-6-(3-fluoro-4-iodophenyl)picolinic acid] | 0 to 29
